{"source": "patent US11999732B2", "about": "“P2X3 receptor antagonists” (RECORDATI INDUSTRIA CHIMICA E FARMACEUTICA SPA, priority 2018, dated 2024)", "target": "T1, human P2X3 receptor (Homo sapiens, UniProt P56373)", "T1 construct": "expressed in transfected cells; host or cells: CHO-K1", "T1 sequence (P56373 1-397)": "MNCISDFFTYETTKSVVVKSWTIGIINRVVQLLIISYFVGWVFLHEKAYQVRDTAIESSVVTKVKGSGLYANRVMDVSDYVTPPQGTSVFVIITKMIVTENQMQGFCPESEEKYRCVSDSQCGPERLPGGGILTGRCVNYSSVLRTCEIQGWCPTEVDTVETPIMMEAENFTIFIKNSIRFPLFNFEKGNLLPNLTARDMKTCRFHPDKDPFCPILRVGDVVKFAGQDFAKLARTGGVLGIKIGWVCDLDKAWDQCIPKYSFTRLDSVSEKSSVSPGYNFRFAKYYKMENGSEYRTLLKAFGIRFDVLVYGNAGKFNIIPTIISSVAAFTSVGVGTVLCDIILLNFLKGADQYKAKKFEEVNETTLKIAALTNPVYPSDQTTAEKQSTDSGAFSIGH", "assay": "Calcium luminescence (photoprotein) assay in CHO-K1 cells co-expressing human P2X3 receptor, α,β-Met-ATP stimulation, FLEXSTATION readout", "format": "cell-based", "conditions": "human P2X3 receptor antagonist activity, CHO-K1 cells, α,β-Met-ATP, read-out: h-P2X3 IC50", "in_short": "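CHO-K1 cells co-expressing human P2X3 and a Ca2+-sensitive photoprotein, loaded with coelenterazine in Tyrode's buffer (pH 7.4) for 4 h at 37 °C. Compounds injected 4 min before α,β-Met-ATP stimulation; luminescence recorded, IC50 and pseudo-Hill slope from nonlinear regression of inhibition curves.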", "note": "Like-named read-outs stand apart in the source and are kept apart here.", "data": [{"compound": "COCCC1CN=C2c3ncc(N4CCOCC4)cc3N(Cc3ccc(OC)cc3)C(=O)N21", "note": "(stereo not drawn) [Example 66, 6-(4-methoxybenzyl)-3-(2-methoxyethyl)-8-(morpholin-4-yl)-2,6-dihydroimidazo[1,2-c]pyrido[2,3-e]pyrimidin-5(3H)-one]", "values": [{"measurement": "IC50", "setting": "Table 6", "result": 2.28, "unit": "µM"}]}, {"compound": "COCCC1CN2C(=O)N(Cc3ccc(OC)cc3)c3cc(N4CCOCC4)cnc3C2=N1", "note": "(stereo not drawn) [Example 65, 6-(4-methoxybenzyl)-2-(2-methoxyethyl)-8-(morpholin-4-yl)-2,6-dihydroimidazo[1,2-c]pyrido[2,3-e]pyrimidin-5(3H)-one]", "values": [{"measurement": "IC50", "setting": "Table 6", "result": 1.79, "unit": "µM"}]}, {"compound": "Cc1noc(C)c1-c1nnc2c3ncc(N4CCOCC4)cc3n(Cc3ccc(Cl)cc3)c(=O)n12", "note": "[Example 110, 6-(4-chlorobenzyl)-3-(3,5-dimethyl-1,2-oxazol-4-yl)-8-(morpholin-4-yl)pyrido[2,3-e][1,2,4]triazolo[4,3-c]pyrimidin-5(6H)-one]", "values": [{"measurement": "IC50", "setting": "Table 7", "result": 0.257, "unit": "µM"}]}, {"compound": "CC(C)(C)c1nnc2c3ncc(N4CCOCC4)cc3c(Cc3ccc(Cl)cc3)nn12", "note": "[Example 111, 3-tert-butyl-6-(4-chlorobenzyl)-8-(morpholin-4-yl)pyrido[2,3-d][1,2,4]triazolo[4,3-b]pyridazine]", "values": [{"measurement": "IC50", "setting": "Table 8", "result": 0.102, "unit": "µM"}]}, {"compound": "COc1ccc(CN2C(=O)N3CC(c4ccccc4)N=C3c3ncc(N4CCOCC4)cc32)cc1", "note": "(stereo not drawn) [Example 28, 6-(4-methoxybenzyl)-8-(morpholin-4-yl)-2-phenyl-2,6-dihydroimidazo[1,2-c]pyrido[2,3-e]pyrimidin-5(3H)-one]", "values": [{"measurement": "IC50", "setting": "Table 6", "result": 0.375, "unit": "µM"}]}, {"compound": "O=C1N2CC(CC3CCCCC3)N=C2c2ncc(N3CCOCC3)cc2N1Cc1ccc(Cl)cc1", "note": "(stereo not drawn) [Example 61, 6-(4-chlorobenzyl)-2-(cyclohexylmethyl)-8-(morpholin-4-yl)-2,6-dihydroimidazo[1,2-c]pyrido[2,3-e]pyrimidin-5(3H)-one]", "values": [{"measurement": "IC50", "setting": "Table 6", "result": 1.08, "unit": "µM"}]}, {"compound": "COc1ccc(Cn2c(=O)n3nc(CC(C)C)nc3c3ncc(N4CCOCC4)cc32)cc1", "note": "[Example 156, 6-(4-methoxybenzyl)-2-(2-methylpropyl)-8-(morpholin-4-yl)pyrido[2,3-e][1,2,4]triazolo[1,5-c]pyrimidin-5(6H)-one]", "values": [{"measurement": "IC50", "setting": "Table 9", "result": 0.608, "unit": "µM"}]}, {"compound": "O=C(C1CN=C2c3ncc(N4CCOCC4)cc3N(Cc3ccc(Cl)cc3)C(=O)N21)N1CCOCC1", "note": "(stereo not drawn) [Example 55, 6-(4-chlorobenzyl)-8-(morpholin-4-y1)-3-(morpholin-4-ylcarbonyl)-2,6-dihydroimidazo[1,2-c]pyrido[2,3-e]pyrimidin-5(3H)-one]", "values": [{"measurement": "IC50", "setting": "Table 6", "result": 2.44, "unit": "µM"}]}, {"compound": "COCC1CN(c2cnc3c(c2)n(Cc2cc(OC)cc(OC)c2)c(=O)n2c(C)c(C(C)C)nc32)C1", "note": "[Example 88, 6-(3,5-dimethoxybenzyl)-8-[3-(methoxymethyl)azetidin-1-y1]-3-methyl-2-(propan-2-yl)imidazo[1,2-c]pyrido[2,3-e]pyrimidin-5(6H)-one]", "values": [{"measurement": "IC50", "setting": "Table 7", "result": 0.0536, "unit": "µM"}]}, {"compound": "COc1ccc(Cn2c(=O)n3c(C(C)(C)C)nnc3c3ncc(N)cc32)cc1", "note": "[Example 176, 8-amino-3-tert-butyl-6-(4-methoxybenzyl)pyrido[2,3-e][1,2,4]triazolo[4,3-c]pyrimidin-5(6H)-one]", "values": [{"measurement": "IC50", "setting": "Table 9", "result": 2.57, "unit": "µM"}]}, {"compound": "COc1cc(CN2C(=O)N3C(=NCC3c3ccccc3)c3ncc(N4CCOCC4)cc32)cc(OC)c1", "note": "(stereo not drawn) [Example 47, 6-(3,5-dimethoxybenzyl)-8-(morpholin-4-yl)-3-phenyl-2,6-dihydroimidazo[1,2-c]pyrido[2,3-e]pyrimidin-5(3H)-one]", "values": [{"measurement": "IC50", "setting": "Table 6", "result": 0.199, "unit": "µM"}]}, {"compound": "O=C1N2CC(C3CCCCC3)N=C2c2ncc(N3CCOCC3)cc2N1Cc1ccc(Cl)cc1", "note": "(stereo not drawn) [Example 25, 6-(4-chlorobenzyl)-2-cyclohexyl-8-(morpholin-4-yl)-2,6-dihydroimidazo[1,2-c]pyrido[2,3-e]pyrimidin-5(3H)-one]", "values": [{"measurement": "IC50", "setting": "Table 6", "result": 0.389, "unit": "µM"}]}, {"compound": "COc1ccc(Cn2c(=O)n3c(C(C)C)nnc3c3ncc(N4CCOCC4)cc32)cc1", "note": "[Example 97, 6-(4-methoxybenzyl)-8-(morpholin-4-yl)-3-(propan-2-yl)pyrido[2,3-e][1,2,4]triazolo[4,3-c]pyrimidin-5(6H)-one]", "values": [{"measurement": "IC50", "setting": "Table 7", "result": 0.394, "unit": "µM"}]}, {"compound": "Cc1ccc(Cc2nn3c(CC4CCCCC4)nnc3c3ncc(N4CCOCC4)cc23)cc1", "note": "[Example 137, 3-(cyclohexylmethyl)-6-(4-methylbenzyl)-8-(morpholin-4-yl)pyrido[2,3-d][1,2,4]triazolo[4,3-b]pyridazine]", "values": [{"measurement": "IC50", "setting": "Table 8", "result": 0.234, "unit": "µM"}]}, {"compound": "CC(C)CC1C(=O)N=C2c3ncc(N4CCOCC4)cc3N(Cc3ccc(Cl)cc3)C(=O)N21", "note": "(stereo not drawn) [Example 64, 6-(4-chlorobenzyl)-3-(2-methylpropyl)-8-(morpholin-4-yl)imidazo[1,2-c]pyrido[2,3-e]pyrimidine-2,5(3H,6H)-dione]", "values": [{"measurement": "IC50", "setting": "Table 6", "result": 0.109, "unit": "µM"}]}, {"compound": "CCC1CCN=C2c3ncc(N4CCOCC4)cc3N(Cc3ccc(Cl)cc3)C(=O)N21", "note": "(stereo not drawn) [Example 155, 5-(4-chlorobenzyl)-8-ethyl-3-(morpholin-4-yl)-5,8,9,10-tetrahydro-6H-pyrido[2,3-e]pyrimido[1,2-c]pyrimidin-6-one]", "values": [{"measurement": "IC50", "setting": "Table 9", "result": 2.17, "unit": "µM"}]}, {"compound": "COc1ncc2c(n1)c1nnc(C(C)(C)C)n1c(=O)n2Cc1ccc(Cl)cc1", "note": "[Example 168, 3-tert-butyl-6-(4-chlorobenzyl)-9-methoxypyrimido[4,5-e][1,2,4]triazolo[4,3-c]pyrimidin-5(6H)-one]", "values": [{"measurement": "IC50", "setting": "Table 9", "result": 1.39, "unit": "µM"}]}, {"compound": "Cc1c(C(C)C)nc2c3ncc(C(=O)N4CCC(O)CC4)cc3n(Cc3ccc(Cl)cc3)c(=O)n12", "note": "[Example 94, 6-(4-chlorobenzyl)-8-[(4-hydroxypiperidin-1-yl)carbonyl]-3-methyl-2-(propan-2-yl)imidazo[1,2-c]pyrido[2,3-e]pyrimidin-5(6H)-one]", "values": [{"measurement": "IC50", "setting": "Table 7", "result": 8.26, "unit": "µM"}]}, {"compound": "COc1ccc(CN2C(=O)N3C(=NCC3COC(C)(C)C)c3ncc(N4CCOCC4)cc32)cc1", "note": "(stereo not drawn) [Example 67, 3-(tert-butoxymethyl)-6-(4-methoxybenzyl)-8-(morpholin-4-yl)-2,6-dihydroimidazo[1,2-c]pyrido[2,3-e]pyrimidin-5(3H)-one]", "values": [{"measurement": "IC50", "setting": "Table 6", "result": 0.218, "unit": "µM"}]}, {"compound": "COc1cc(CN2C(=O)N3CC(CC(C)C)N=C3c3ncc(N4CCOCC4)cc32)cc(OC)c1", "note": "(stereo not drawn) [Example 22, 6-(3,5-dimethoxybenzyl)-2-(2-methylpropyl)-8-(morpholin-4-yl)-2,6-dihydroimidazo[1,2-c]pyrido[2,3-e]pyrimidin-5(3H)-one]", "values": [{"measurement": "IC50", "setting": "Table 6", "result": 0.143, "unit": "µM"}]}, {"compound": "COc1cc(CN2C(=O)N3C(=NC(C)C3C)c3ncc(N4CCOCC4)cc32)cc(OC)c1", "note": "(stereo not drawn) [Example 8, 6-(3,5-dimethoxybenzyl)-2,3-dimethyl-8-(morpholin-4-y1)-2,6-dihydroimidazo[1,2-c]pyrido[2,3-e]pyrimidin-5(3H)-one]", "values": [{"measurement": "IC50", "setting": "Table 6", "result": 0.636, "unit": "µM"}]}, {"compound": "COCC1CN(c2cnc3c(c2)c(Cc2cc(OC)cc(OC)c2)nn2c(CC(C)C)nnc32)C1", "note": "[Example 121, 6-(3,5-dimethoxybenzyl)-8-[3-(methoxymethyl)azetidin-1-yl]-3-(2-methylpropyl)pyrido[2,3-d][1,2,4]triazolo[4,3-b]pyridazine]", "values": [{"measurement": "IC50", "setting": "Table 8", "result": 1.15, "unit": "µM"}]}, {"compound": "COc1cc(Cn2c(=O)n3c(C)c(C(C)C)nc3c3ncc(N4CCN(C(C)=O)CC4)cc32)cc(OC)c1", "note": "[Example 84, 8-(4-acetylpiperazin-1-yl)-6-(3,5-dimethoxybenzyl)-3-methyl-2-(propan-2-yl)imidazo[1,2-c]pyrido[2,3-e]pyrimidin-5(6H)-one]", "values": [{"measurement": "IC50", "setting": "Table 7", "result": 0.259, "unit": "µM"}]}, {"compound": "CC(C)C1C(=O)N=C2c3ncc(N4CCOCC4)cc3N(Cc3ccc(Cl)cc3)C(=O)N21", "note": "(stereo not drawn) [Example 163, 6-(4-chlorobenzyl)-8-(morpholin-4-yl)-3-(propan-2-yl)imidazo[1,2-c]pyrido[2,3-e]pyrimidine-2,5(3H,6H)-dione]", "values": [{"measurement": "IC50", "setting": "Table 9", "result": 0.278, "unit": "µM"}]}]}
